Where two headings read alike, the source gives them in different places.
How the values were obtained:
Mcl-1 protein = Mcl-1 protein (UniProtKB primary accession number: Q07820) (Homo sapiens, UniProt Q07820); test: Inhibition of Mcl-1 by fluorescence polarisation, Method 1; assay type: binding; conditions: read-out: IC50 (M) Mcl-1 FP
Outline: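 Fluorescence polarisation competition with an 11-point compound dilution series (final DMSO 5%). Mcl-1 protein at 5 nM and fluorescein-labelled ligand at 1 nM (final) in 10 mM HEPES, 150 mM NaCl, 0.05% Tween 20, pH 7.4.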

[1] = tested on: H929 multiple myeloma tumour line; test: In vitro cytotoxicity, Microculture Tetrazolium Assay; assay type: cell-based; conditions: H929 cells, 48 hours exposure, read-out: IC50 (μM) MTT H929
Protocol: The cytotoxicity studies were carried out on the H929 multiple myeloma tumour line.
The cells are distributed onto microplates and exposed to the test compounds for 48 hours.

[2] = fluorescence polarisation, Method 1, or Method 2
[3] = Homo sapiens, NCI-H929, 48 h, MTT
[4] = fluorescence polarisation test, Method 2 values are underlined in the patent (underlining not visible here)

Sequence of Mcl-1 protein (Q07820 whole entry): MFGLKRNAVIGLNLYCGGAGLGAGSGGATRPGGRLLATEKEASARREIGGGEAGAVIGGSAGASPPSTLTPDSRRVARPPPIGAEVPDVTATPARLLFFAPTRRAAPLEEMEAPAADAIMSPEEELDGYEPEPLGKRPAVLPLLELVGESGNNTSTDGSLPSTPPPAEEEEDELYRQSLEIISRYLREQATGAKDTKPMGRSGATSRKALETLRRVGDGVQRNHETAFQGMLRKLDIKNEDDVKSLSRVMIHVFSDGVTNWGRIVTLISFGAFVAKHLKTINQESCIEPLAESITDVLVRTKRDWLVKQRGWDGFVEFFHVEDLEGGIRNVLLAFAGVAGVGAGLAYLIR

SMILES: COc1ccccc1-c1nccc(COc2ccccc2CC(Oc2ncnc3sc(-c4cccc(F)c4)c(-c4ccc(OCCN5CCN(C)CC5)c(Cl)c4C)c23)C(=O)O)n1 [Example 836, (2R)-2-{[(5Sa)-5-{3-chloro-2-methyl-4-[2-(4-methylpiperazin-1-yl)ethoxy]phenyl}-6-(3-fluorophenyl)thieno[2,3-d]pyrimidin-4-yl]oxy}-3-(2-{[2-(2-methoxyphenyl)pyrimidin-4-yl]methoxy}phenyl)propanoic acid]
- IC50 (Mcl-1 protein; fluorescence polarisation test, Method 1, or Method 2 where the value is underlined (underlining not visible)): 2.8e-09 M
- IC50 ([1]; Homo sapiens, NCI-H929, 48 h, cell viability): 0.002 µM

SMILES: COc1ccccc1-c1nccc(COc2ccccc2CC(Oc2ncnc3sc(-c4ccc(OCCc5ccccc5)cc4)c(-c4ccc(OCCN5CCN(C)CC5)c(Cl)c4C)c23)C(=O)O)n1 (single isomer, unassigned) [Example 766]
- IC50 (Mcl-1 protein; [2]): 3.66e-09 M
- IC50 [1, 3]: 0.037 µM

SMILES: COCCOCCn1nccc1COc1ccccc1CC(Oc1ncnc2sc(-c3ccc(F)cc3)c(-c3ccc(OCCN4CCN(C)CC4)c(Cl)c3C)c12)C(=O)O [Example 90, (2R)-2-{[(5Sa)-5-{3-chloro-2-methyl-4-[2-(4-methylpiperazin-1-yl)ethoxy]phenyl}-6-(4-fluorophenyl)thieno[2,3-d]pyrimidin-4-yl]oxy}-3-[2-({1-[2-(2-methoxyethoxy)ethyl]-1H-pyrazol-5-yl}methoxy)phenyl]propanoic acid]
- IC50 (Mcl-1 protein; [4]): 3.2e-09 M
- IC50 [1, 3]: 0.058 µM

SMILES: Cc1cc(-c2nccc(COc3ccccc3CC(Oc3ncnc4sc(-c5ccc(F)cc5)c(-c5ccc(OCCN(C)C)c(Cl)c5C)c34)C(=O)O)n2)ccn1 [Example 136, (2R)-2-{[(5Sa)-5-{3-chloro-4-[2-(dimethylamino)ethoxy]-2-methylphenyl}-6-(4-fluorophenyl)thieno[2,3-d]pyrimidin-4-yl]oxy}-3-(2-{[2-(2-methylpyridin-4-yl)pyrimidin-4-yl]methoxy}phenyl)propanoic acid]
- IC50 (Mcl-1 protein; [4]): 7.7e-09 M
- IC50 [1, 3]: 0.015 µM

SMILES: Cc1c(-c2c(-c3ccco3)sc3ncnc(OC(Cc4cccc(F)c4)C(=O)O)c23)ccc(OCCN2CCN(C)CC2)c1Cl [Example 348, (2R)-2-{[(5Sa)-5-{3-chloro-2-methyl-4-[2-(4-methylpiperazin-1-yl)ethoxy]phenyl}-6-(furan-2-yl)thieno[2,3-d]pyrimidin-4-yl]oxy}-3-(3-fluorophenyl)propanoic acid]
- IC50 (Mcl-1 protein; [4]): 2.1e-08 M
- IC50 [1, 3]: 0.346 µM

SMILES: Cc1c(-c2c(-c3ccco3)sc3ncnc(OC(Cc4ccccc4OCc4cnn(C)c4)C(=O)O)c23)ccc(OCCN2CCN(C)CC2)c1Cl [Example 279, (2R)-2-{[(5Sa)-5-{3-chloro-2-methyl-4-[2-(4-methylpiperazin-1-yl)ethoxy]phenyl}-6-(furan-2-yl)thieno[2,3-d]pyrimidin-4-yl]oxy}-3-{2-[(1-methyl-1H-pyrazol-4-yl)methoxy]phenyl}propanoic acid]
- IC50 (Mcl-1 protein; [4]): 8e-09 M
- IC50 [1, 3]: 0.406 µM

SMILES: COc1ccccc1CC(Oc1ncnc2sc(-c3ccccc3)c(-c3ccc(OCCN4CCN(C)CC4)c(Cl)c3C)c12)C(=O)O [Example 564, (2R)-2-[((5Sa)-5-{3-chloro-2-methyl-4-[2-(4-methylpiperazin-1-yl)ethoxy]phenyl}-6-phenylthieno[2,3-d]pyrimidin-4-yl)oxy]-3-(2-methoxyphenyl)propanoic acid]
- IC50 (Mcl-1 protein; [2]): 8.5e-10 M
- IC50 [1, 3]: 0.202 µM

SMILES: COc1ccccc1-c1nccc(COc2ccccc2CC(Oc2ncnc3sc(C#CCOc4ccccc4)c(-c4ccc(OCCN5CCN(C)CC5)c(Cl)c4C)c23)C(=O)O)n1 [Example 782, (2R)-2-{[(5Sa)-5-{3-chloro-2-methyl-4-[2-(4-methylpiperazin-1-yl)ethoxy]phenyl}-6-(3-phenoxyprop-1-yn-1-yl)thieno[2,3-d]pyrimidin-4-yl]oxy}-3-(2-{[2-(2-methoxyphenyl)pyrimidin-4-yl]methoxy}phenyl)propanoic acid]
- IC50 (Mcl-1 protein; [2]): 1.68e-09 M
- IC50 [1, 3]: 0.057 µM

SMILES: COc1ccccc1CC(Oc1ncnc2sc(-c3ccco3)c(-c3ccc(OC4CCN(C)CC4)c(Cl)c3C)c12)C(=O)O [Example 304, (2R)-2-{[(5Sa)-5-{3-chloro-2-methyl-4-[(1-methylpiperidin-4-yl)oxy]phenyl}-6-(furan-2-yl)thieno[2,3-d]pyrimidin-4-yl]oxy}-3-(2-methoxyphenyl)propanoic acid]
- IC50 (Mcl-1 protein; [4]): 1.1e-08 M
- IC50 [1, 3]: 1.7 µM

SMILES: COc1ccc(-c2sc3ncnc(OC(Cc4ccccc4OC)C(=O)O)c3c2-c2ccc(OCCN3CCN(C)CC3)c(Cl)c2C)o1 [Example 544, (2R)-2-{[(5Sa)-5-{3-chloro-2-methyl-4-[2-(4-methylpiperazin-1-yl)ethoxy]phenyl}-6-(5-methoxyfuran-2-yl)thieno[2,3-d]pyrimidin-4-yl]oxy}-3-(2-methoxyphenyl)propanoic acid]
- IC50 (Mcl-1 protein; [2]): 1.4e-08 M
- IC50 [1, 3]: 0.274 µM

SMILES: Cc1c(-c2c(-c3ccco3)sc3ncnc(OC(Cc4ccccc4OCc4cccnc4)C(=O)O)c23)ccc(OCCN2CCN(C)CC2)c1Cl [Example 242, (2R)-2-{[(5Sa)-5-{3-chloro-2-methyl-4-[2-(4-methylpiperazin-1-yl)ethoxy]phenyl}-6-(furan-2-yl)thieno[2,3-d]pyrimidin-4-yl]oxy}-3-[2-(pyridin-3-ylmethoxy)phenyl]propanoic acid]
- IC50 (Mcl-1 protein; [4]): 7.3e-09 M
- IC50 [1, 3]: 0.09 µM

SMILES: COc1c(C)cccc1CC(Oc1ncnc2sc(-c3ccco3)c(-c3ccc(OCCN4CCN(C)CC4)c(Cl)c3C)c12)C(=O)O [Example 351, (2R)-2-{[(5Sa)-5-{3-chloro-2-methyl-4-[2-(4-methylpiperazin-1-yl)ethoxy]phenyl}-6-(furan-2-yl)thieno[2,3-d]pyrimidin-4-yl]oxy}-3-(2-methoxy-3-methylphenyl)propanoic acid]
- IC50 (Mcl-1 protein; [4]): 1.5e-08 M
- IC50 [1, 3]: 0.526 µM

SMILES: COCOc1cc(F)ccc1CC(Oc1ncnc2sc(-c3ccc(F)o3)c(-c3ccc(OCCN4CCN(C)CC4)c(Cl)c3C)c12)C(=O)O [Example 690, (2R)-2-{[(5Sa)-5-{3-chloro-2-methyl-4-[2-(4-methylpiperazin-1-yl)ethoxy]phenyl}-6-(5-fluorofuran-2-yl)thieno[2,3-d]pyrimidin-4-yl]oxy}-3-[4-fluoro-2-(methoxymethoxy)phenyl]propanoic acid]
- IC50 (Mcl-1 protein; [2]): 2.3e-08 M
- IC50 [1, 3]: 0.178 µM

SMILES: Cc1c(-c2c(-c3ccc(F)cc3)sc3ncnc(OC(Cc4ccccc4OCc4cnccn4)C(=O)O)c23)ccc(OCC2CCN(C)C2)c1Cl [Example 140, (2R)-2-{[(5Sa)-5-(3-chloro-2-methyl-4-{[(3S)-1-methylpyrrolidin-3-yl]methoxy}phenyl)-6-(4-fluorophenyl)thieno[2,3-d]pyrimidin-4-yl]oxy}-3-[2-(pyrazin-2-ylmethoxy)phenyl]propanoic acid]
- IC50 (Mcl-1 protein; [4]): 2.2e-08 M
- IC50 ([1]; MTT): 0.205 µM

SMILES: COc1ccccc1CC(Oc1ncnc2sc(-c3ccco3)c(-c3ccc(OC4CCCN(C)C4)c(Cl)c3C)c12)C(=O)O (single isomer, unassigned) [Example 302, (2R)-2-{[(5Sa)-5-{3-chloro-2-methyl-4-[((3S or R)-1-methylpiperidin-3-yl)oxy]phenyl}-6-(furan-2-yl)thieno[2,3-d]pyrimidin-4-yl]oxy}-3-(2-methoxyphenyl)propanoic acid]
- IC50 (Mcl-1 protein; [4]): 1.4e-08 M
- IC50 ([1]; MTT): 1.59 µM

SMILES: COc1cc(-c2sc3ncnc(OC(Cc4ccccc4OC)C(=O)O)c3c2-c2ccc(OCCN3CCN(C)CC3)c(Cl)c2C)ccc1F [Example 378, (2R)-2-{[(5Sa)-5-{3-chloro-2-methyl-4-[2-(4-methylpiperazin-1-yl)ethoxy]phenyl}-6-(4-fluoro-3-methoxyphenyl)thieno[2,3-d]pyrimidin-4-yl]oxy}-3-(2-methoxyphenyl)propanoic acid]
- IC50 (Mcl-1 protein; [4]): 3.2e-09 M
- IC50 [1, 3]: 0.202 µM

SMILES: COc1ccccc1CC(Oc1ncnc2sc(-c3cccc(N(C)C)c3)c(-c3ccc(OCCN4CCN(C)CC4)c(Cl)c3C)c12)C(=O)O [Example 552, (2R)-2-[((5Sa)-5-{3-chloro-2-methyl-4-[2-(4-methylpiperazin-1-yl)ethoxy]phenyl}-6-[3-(dimethylamino)phenyl]thieno[2,3-d]pyrimidin-4-yl)oxy]-3-(2-methoxyphenyl)propanoic acid]
- IC50 (Mcl-1 protein; [2]): 4.1e-08 M
- IC50 [1, 3]: 0.784 µM

SMILES: C#Cc1sc2ncnc(OC(Cc3ccccc3OCc3ccnn3CCCC)C(=O)O)c2c1-c1ccc(OCCN2CCN(C)CC2)c(Cl)c1C [Example 611, (2R)-3-{2-[(1-butyl-1H-pyrazol-5-yl)methoxy]phenyl}-2-[((5Sa)-5-{3-chloro-2-methyl-4-[2-(4-methylpiperazin-1-yl)ethoxy]phenyl}-6-ethynylthieno[2,3-d]pyrimidin-4-yl)oxy]propanoic acid]
- IC50 (Mcl-1 protein; [2]): 3.9e-09 M
- IC50 [1, 3]: 0.23 µM

SMILES: Cc1c(-c2c(-c3ccc(F)o3)sc3ncnc(OC(Cc4ccccc4OCc4cncnc4)C(=O)O)c23)ccc(OCCN2CCN(C)CC2)c1Cl [Example 190, (2R)-2-{[(5Sa)-5-{3-chloro-2-methyl-4-[2-(4-methylpiperazin-1-yl)ethoxy]phenyl}-6-(5-fluorofuran-2-yl)thieno[2,3-d]pyrimidin-4-yl]oxy}-3-[2-(pyrimidin-5-ylmethoxy)phenyl]propanoic acid]
- IC50 (Mcl-1 protein; [4]): 7.5e-09 M
- IC50 [1, 3]: 0.037 µM

SMILES: Cc1c(-c2c(-c3ccc(F)cc3)sc3ncnc(OC(Cc4ccccc4OCc4ccnn4CC(F)(F)F)C(=O)O)c23)ccc(OCCN(C)C)c1Cl [Example 132, (2R)-2-{[(5Sa)-5-{3-chloro-4-[2-(dimethylamino)ethoxy]-2-methylphenyl}-6-(4-fluorophenyl)thieno[2,3-d]pyrimidin-4-yl]oxy}-3-(2-{[1-(2,2,2-trifluoroethyl)-1H-pyrazol-5-yl]methoxy}phenyl)propanoic acid]
- IC50 (Mcl-1 protein; [4]): 4.8e-09 M
- IC50 [1, 3]: 0.102 µM
